From PMC6689431 (Biochimica et biophysica acta. Biomembranes, 2019)

Assays:
[1] = Fluorescence intensity of TAMRA-labeled peptides with detergents; assay type: physicochemical; settings: 0.2 µM peptide, 50 mM Tris pH 8 + 0.1% (w/v) SDS, no cells, λex 544/λem 590 nm
[2] = Fluorescence intensity of TAMRA-labeled peptides at different pH / buffers; assay type: physicochemical; settings: 0.2 µM peptide; for fluorescence intensity in Tris buffer pH 8: 50 mM Tris pH 8, λex 544/λem 590 nm, mean ± SD

Substance	increase of fluorescence intensity in Tris+SDS compared to Tris buffer alone [1] [×]	fluorescence intensity in Tris buffer pH 8 [2]	decrease of fluorescence intensity, citric acid versus Tris buffer, both pH 8 [2] [%]
^*-LLRLLRWWWRLLRLL-ANSRWPTSII [*WRAP5-iCAL36]	15	–	–
^*-GRKKRRQRRRPPQ-ANSRWPTSII [*Tat-iCAL36]	–	103,693 ± 2,848	–
^*-GALFLGWLGAAGSTMGAWSQPKKKRKV-ANSRWPTSII [*MPG-iCAL36]	7	68,132 ± 5,731	36
^*-RLWRLLWRLWRRLWRLLR-ANSRWPTSII [*C6M1-iCAL36]	9	–	–
